Measurements as given in ChEMBL document CHEMBL2040782 (Eur J Med Chem, 2012).

Columns and labels:
Rattus norvegicus = experiment: Wake promoting activity in EEG/EMG Sprague-Dawley rat model assessed as slow wave sleep and rapid eye movement sleep time at 100 mg/kg, ip measured up to 3 hrs (reference value: 65 +/- 9 mins); assay type: functional; details: route intraperitoneal
[1] = biological target: T1, Sodium-dependent dopamine transporter (Rattus norvegicus, UniProt P23977); experiment: Inhibition of rat DAT
[2] = biological target: T1, Sodium-dependent dopamine transporter; experiment: Inhibition of rat DAT-mediated dopamine reuptake
Transporter = Transporter (Rattus norvegicus, UniProt Q63380); experiment: Inhibition of rat NET-mediated norepinephrine reuptake
[3] = biological target: Sodium-dependent serotonin transporter (Rattus norvegicus, UniProt P31652); experiment: Inhibition of rat SERT-mediated serotonin reuptake
Cytochrome P450 2C19 = Cytochrome P450 2C19 (Homo sapiens, UniProt P33261); experiment: Inhibition of CYP2C19; assay type: ADME
Cytochrome P450 3A4 = Cytochrome P450 3A4 (Homo sapiens, UniProt P08684); experiment: Inhibition of CYP3A4; assay type: ADME
Cytochrome P450 3A5 = Cytochrome P450 3A5 (Homo sapiens, UniProt P20815); experiment: Inhibition of CYP3A5; assay type: ADME
Cytochrome P450 2D6 = Cytochrome P450 2D6 (Homo sapiens, UniProt P10635); experiment: Inhibition of CYP2D6; assay type: ADME
Cytochrome P450 1A1 = biological target: T2, Cytochrome P450 1A1 (Homo sapiens, UniProt P04798); experiment: (§1) Inhibition of CYP1A1 ( at 100 uM); assay type: ADME; details: 100 µM
T2 sequence (P04798 whole entry): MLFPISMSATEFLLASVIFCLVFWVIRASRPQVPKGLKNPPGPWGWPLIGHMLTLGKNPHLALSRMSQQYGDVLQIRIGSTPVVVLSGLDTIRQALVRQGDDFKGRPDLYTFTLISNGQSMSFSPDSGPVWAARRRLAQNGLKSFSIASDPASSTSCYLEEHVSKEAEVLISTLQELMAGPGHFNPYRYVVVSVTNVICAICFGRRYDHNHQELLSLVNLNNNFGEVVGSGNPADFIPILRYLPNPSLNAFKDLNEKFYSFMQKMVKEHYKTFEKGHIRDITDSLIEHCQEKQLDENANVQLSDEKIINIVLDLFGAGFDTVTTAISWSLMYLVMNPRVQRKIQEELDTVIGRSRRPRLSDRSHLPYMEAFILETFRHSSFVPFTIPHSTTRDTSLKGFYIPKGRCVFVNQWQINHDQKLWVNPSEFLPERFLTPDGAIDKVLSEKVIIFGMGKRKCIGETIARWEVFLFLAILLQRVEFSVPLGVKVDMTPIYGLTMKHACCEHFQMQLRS

Cytochrome P450 1A2 = biological target: T3, Cytochrome P450 1A2 (Homo sapiens, UniProt P05177); experiment: (§2) Inhibition of CYP1A2 ( at 100 uM); assay type: ADME; details: 100 µM
T3 sequence (P05177 whole entry): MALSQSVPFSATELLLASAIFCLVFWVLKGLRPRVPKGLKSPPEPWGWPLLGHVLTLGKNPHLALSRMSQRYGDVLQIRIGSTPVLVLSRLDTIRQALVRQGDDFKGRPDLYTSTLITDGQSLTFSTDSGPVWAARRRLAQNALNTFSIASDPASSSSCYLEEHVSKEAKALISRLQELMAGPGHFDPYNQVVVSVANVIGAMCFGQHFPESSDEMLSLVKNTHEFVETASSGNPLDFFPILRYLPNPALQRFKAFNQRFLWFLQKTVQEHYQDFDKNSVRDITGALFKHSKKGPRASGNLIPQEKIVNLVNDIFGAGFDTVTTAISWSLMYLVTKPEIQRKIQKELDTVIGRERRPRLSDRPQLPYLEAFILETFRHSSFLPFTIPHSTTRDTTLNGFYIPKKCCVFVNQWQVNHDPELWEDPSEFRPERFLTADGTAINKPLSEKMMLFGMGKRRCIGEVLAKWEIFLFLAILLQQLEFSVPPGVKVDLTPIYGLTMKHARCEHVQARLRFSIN

[4] = biological target: Sodium-dependent serotonin transporter (Rattus norvegicus) (UniProt P31652); experiment: Inhibition of rat SERT at 10 uM
[5] = biological target: Transporter (Rattus norvegicus) (UniProt Q63380); details: 10 uM
Description: Inhibition of rat NET at 10 uM

Cytochrome P450 2C9 = Cytochrome P450 2C9 (Homo sapiens, UniProt P11712); experiment: Inhibition of CYP2C9; assay type: ADME
CYP1A1 = biological target: T4, CYP1A1 (Homo sapiens, UniProt P04798); experiment: as §1; assay type: ADME
T4 sequence (P04798 whole entry): T2 sequence (P04798 whole entry)

CYP1A2 = biological target: T5, CYP1A2 (Homo sapiens, UniProt P05177); experiment: as §2; assay type: ADME
T5 sequence (P05177 whole entry): T3 sequence (P05177 whole entry)

CYP3A4 = CYP3A4 (Homo sapiens, UniProt P08684); experiment: Inhibition of CYP3A4 at 10 uM; assay type: ADME
CYP3A5 = CYP3A5 (Homo sapiens, UniProt P20815); experiment: Inhibition of CYP3A5 at 10 uM; assay type: ADME
CYP2D6 = CYP2D6 (Homo sapiens, UniProt P10635); experiment: Inhibition of CYP2D6 at 10 uM; assay type: ADME
CYP2D6, sequence (P10635 whole entry): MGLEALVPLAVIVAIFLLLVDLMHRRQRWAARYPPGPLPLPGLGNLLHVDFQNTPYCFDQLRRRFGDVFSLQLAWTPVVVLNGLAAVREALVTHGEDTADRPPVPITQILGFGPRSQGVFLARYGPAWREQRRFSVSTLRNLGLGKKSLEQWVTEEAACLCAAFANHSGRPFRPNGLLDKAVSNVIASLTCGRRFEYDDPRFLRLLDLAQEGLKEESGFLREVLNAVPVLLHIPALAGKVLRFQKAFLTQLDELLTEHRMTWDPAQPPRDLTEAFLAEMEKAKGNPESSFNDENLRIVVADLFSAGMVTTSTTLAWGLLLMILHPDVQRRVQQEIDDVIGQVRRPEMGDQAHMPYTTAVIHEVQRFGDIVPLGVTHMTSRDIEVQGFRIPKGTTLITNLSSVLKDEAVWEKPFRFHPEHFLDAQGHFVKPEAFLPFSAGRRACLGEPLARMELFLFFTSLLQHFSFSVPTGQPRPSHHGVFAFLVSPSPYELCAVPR

T1 sequence (P23977 whole entry): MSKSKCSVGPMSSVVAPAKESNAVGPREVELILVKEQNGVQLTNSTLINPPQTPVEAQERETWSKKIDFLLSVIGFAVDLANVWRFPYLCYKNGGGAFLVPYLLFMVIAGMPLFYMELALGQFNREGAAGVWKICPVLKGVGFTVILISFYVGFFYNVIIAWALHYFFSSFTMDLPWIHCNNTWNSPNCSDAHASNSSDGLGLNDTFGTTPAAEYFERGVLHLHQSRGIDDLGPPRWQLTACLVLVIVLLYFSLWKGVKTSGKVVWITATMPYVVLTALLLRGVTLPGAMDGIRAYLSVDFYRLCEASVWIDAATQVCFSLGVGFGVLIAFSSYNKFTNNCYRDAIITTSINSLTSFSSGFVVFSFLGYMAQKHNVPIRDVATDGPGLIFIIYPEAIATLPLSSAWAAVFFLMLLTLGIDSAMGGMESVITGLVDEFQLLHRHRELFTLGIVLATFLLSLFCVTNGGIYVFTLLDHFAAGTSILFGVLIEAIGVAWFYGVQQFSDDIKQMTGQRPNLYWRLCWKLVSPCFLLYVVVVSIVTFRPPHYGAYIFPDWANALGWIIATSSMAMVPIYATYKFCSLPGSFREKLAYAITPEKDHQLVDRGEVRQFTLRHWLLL
Sodium-dependent serotonin transporter, sequence (P31652 whole entry): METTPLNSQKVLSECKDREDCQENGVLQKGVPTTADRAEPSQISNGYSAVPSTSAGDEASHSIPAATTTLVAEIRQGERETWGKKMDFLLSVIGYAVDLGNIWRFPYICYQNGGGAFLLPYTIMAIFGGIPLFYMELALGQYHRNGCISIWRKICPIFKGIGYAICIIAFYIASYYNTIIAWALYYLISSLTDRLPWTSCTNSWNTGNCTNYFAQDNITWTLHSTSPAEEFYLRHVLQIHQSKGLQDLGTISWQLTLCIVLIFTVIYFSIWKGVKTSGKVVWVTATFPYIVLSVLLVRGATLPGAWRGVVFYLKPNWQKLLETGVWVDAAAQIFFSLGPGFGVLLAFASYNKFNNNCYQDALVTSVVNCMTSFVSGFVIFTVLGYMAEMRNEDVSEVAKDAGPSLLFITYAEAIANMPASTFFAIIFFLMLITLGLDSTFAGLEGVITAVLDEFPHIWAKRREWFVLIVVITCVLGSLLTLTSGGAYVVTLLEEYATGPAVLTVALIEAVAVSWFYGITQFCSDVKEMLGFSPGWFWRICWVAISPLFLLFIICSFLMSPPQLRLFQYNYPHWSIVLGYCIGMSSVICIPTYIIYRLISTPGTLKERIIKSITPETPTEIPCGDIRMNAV
Sodium-dependent serotonin transporter (Rattus norvegicus), sequence (P31652 whole entry): as above
Cytochrome P450 2D6, sequence (P10635 whole entry): as the sequence (P10635 whole entry) above
Cytochrome P450 3A4, sequence (P08684 whole entry): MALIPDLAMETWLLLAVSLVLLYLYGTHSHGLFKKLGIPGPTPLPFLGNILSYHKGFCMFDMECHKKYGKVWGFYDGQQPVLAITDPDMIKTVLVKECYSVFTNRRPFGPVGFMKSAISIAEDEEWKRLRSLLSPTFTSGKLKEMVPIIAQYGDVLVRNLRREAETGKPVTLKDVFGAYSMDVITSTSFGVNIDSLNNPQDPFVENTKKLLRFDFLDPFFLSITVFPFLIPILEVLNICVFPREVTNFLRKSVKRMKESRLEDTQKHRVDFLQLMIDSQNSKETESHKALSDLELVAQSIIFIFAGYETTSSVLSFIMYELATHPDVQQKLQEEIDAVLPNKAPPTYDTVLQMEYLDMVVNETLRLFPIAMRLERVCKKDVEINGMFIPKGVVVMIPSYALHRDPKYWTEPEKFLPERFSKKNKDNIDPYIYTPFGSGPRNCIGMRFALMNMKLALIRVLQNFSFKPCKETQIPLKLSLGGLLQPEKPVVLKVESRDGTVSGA
Cytochrome P450 2C19, sequence (P33261 whole entry): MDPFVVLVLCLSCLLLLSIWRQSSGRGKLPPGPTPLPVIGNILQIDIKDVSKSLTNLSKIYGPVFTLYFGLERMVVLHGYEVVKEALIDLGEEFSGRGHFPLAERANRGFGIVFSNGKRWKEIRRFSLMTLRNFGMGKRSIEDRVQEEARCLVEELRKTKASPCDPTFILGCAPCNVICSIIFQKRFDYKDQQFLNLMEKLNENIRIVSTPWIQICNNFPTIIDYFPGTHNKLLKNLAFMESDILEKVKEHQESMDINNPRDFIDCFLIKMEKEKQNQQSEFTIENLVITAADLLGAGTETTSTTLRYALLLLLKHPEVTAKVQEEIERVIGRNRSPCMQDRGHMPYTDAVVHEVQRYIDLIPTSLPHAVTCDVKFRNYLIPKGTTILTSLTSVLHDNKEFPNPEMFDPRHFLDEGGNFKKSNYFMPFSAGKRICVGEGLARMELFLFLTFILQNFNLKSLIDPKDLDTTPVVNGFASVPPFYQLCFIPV
Transporter, sequence (Q63380 whole entry): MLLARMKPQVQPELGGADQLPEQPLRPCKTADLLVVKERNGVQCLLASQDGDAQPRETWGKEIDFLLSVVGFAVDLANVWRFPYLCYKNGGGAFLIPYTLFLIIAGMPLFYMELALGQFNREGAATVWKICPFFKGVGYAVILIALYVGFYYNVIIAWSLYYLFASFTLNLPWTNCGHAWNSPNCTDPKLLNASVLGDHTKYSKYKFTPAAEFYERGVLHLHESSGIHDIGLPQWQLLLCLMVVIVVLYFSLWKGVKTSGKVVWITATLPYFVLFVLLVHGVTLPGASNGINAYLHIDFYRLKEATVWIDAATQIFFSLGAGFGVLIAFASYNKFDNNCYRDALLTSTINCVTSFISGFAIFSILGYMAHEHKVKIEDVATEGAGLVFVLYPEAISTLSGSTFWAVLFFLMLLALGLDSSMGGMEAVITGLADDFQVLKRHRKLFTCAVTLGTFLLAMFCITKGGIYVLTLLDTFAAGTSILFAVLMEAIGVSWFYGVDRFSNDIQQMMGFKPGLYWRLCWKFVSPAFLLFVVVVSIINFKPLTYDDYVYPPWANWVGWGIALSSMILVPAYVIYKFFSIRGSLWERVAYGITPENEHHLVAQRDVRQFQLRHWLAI
Transporter (Rattus norvegicus), sequence (Q63380 as listed by the source): as the sequence (Q63380 whole entry) above
Cytochrome P450 3A5, sequence (P20815 whole entry): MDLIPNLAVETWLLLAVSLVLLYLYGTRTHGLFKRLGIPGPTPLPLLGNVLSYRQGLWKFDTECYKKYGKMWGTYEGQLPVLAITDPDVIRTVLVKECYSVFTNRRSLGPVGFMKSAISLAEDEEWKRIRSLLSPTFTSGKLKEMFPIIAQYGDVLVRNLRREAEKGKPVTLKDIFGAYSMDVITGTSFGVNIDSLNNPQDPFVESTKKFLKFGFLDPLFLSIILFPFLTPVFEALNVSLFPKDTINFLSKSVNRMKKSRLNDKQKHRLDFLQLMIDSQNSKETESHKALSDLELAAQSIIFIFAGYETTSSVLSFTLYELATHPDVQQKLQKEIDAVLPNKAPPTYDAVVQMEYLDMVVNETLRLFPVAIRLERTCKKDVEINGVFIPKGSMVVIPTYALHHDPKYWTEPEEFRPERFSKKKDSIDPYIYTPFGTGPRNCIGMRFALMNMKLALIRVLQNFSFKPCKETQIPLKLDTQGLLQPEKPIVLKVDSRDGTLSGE
CYP3A4, sequence (P08684 whole entry): as the sequence (P08684 whole entry) above
CYP3A5, sequence (P20815 whole entry): as the sequence (P20815 whole entry) above

In the case of NC(=O)C[S+]([O-])Cc1ccc(Oc2ccc(Cl)c(Cl)c2)cc1 (stereo unspecified), the Time (Rattus norvegicus) is reported as 88 min.
Work on NC(=O)C[S+]([O-])Cc1ccccc1Oc1ccc(F)cc1 (racemic) yielded a Time (Rattus norvegicus) of 123 min.
NC(=O)C[S+]([O-])Cc1ccccc1Oc1ccc(Cl)cc1 (racemic) showed a Time (Rattus norvegicus) of 165 min.
With NC(=O)C[S+]([O-])Cc1ccccc1Oc1cccc(Cl)c1Cl (racemic) the Time (Rattus norvegicus) was 120 min.
Compound NC(=O)C[S+]([O-])Cc1ccccc1Oc1ccc(Cl)cc1Cl (racemic) has a Time (Rattus norvegicus) of 74 min.
Compound NC(=O)C[S+]([O-])Cc1ccccc1Oc1cc(Cl)cc(Cl)c1 (racemic) has a Time (Rattus norvegicus) of 117 min.
With NC(=O)C[S+]([O-])Cc1ccccc1Oc1ccc(Cl)c(Cl)c1 (racemic) the Time (Rattus norvegicus; 100 mg/kg) was 180 min.
For NC(=O)C[S+]([O-])Cc1ccccc1Oc1ccc(F)c(Cl)c1 (racemic), the Time (Rattus norvegicus) was 160 min.
Compound NC(=O)C[S+]([O-])Cc1ccccc1Oc1ccc(Cl)c(F)c1 (racemic) has a Time (Rattus norvegicus) of 176 min.
Work on NC(=O)C[S+]([O-])Cc1ccccc1Oc1ccc2ccccc2c1 (racemic) yielded a Time (Rattus norvegicus) of 131 min.
Work on NC(=O)C[S+]([O-])Cc1ccccc1Oc1ccc(Cl)c(Cl)c1 (single isomer, unassigned; (+)) [listing 1 of 2 here] yielded a Time (Rattus norvegicus; 100 mg/kg) of 167 min, an IC50 [1] of 0.9 µM and an IC50 [2] of 1.1 µM. It also gave an IC50 (Transporter) of 3.1 µM, an IC50 [3] of 33 µM and an IC50 (Cytochrome P450 2C19) of 20 µM. It also gave an IC50 (Cytochrome P450 3A4) of 32 µM, an IC50 (Cytochrome P450 3A5) of 32 µM and an IC50 (Cytochrome P450 2D6) of 89 µM. The “inhibition (INH)” value (Cytochrome P450 1A1) was 18% and the “inhibition (INH)” value (Cytochrome P450 1A2) was 18%.
With NC(=O)C[S+]([O-])Cc1ccccc1Oc1ccc(Cl)c(Cl)c1 (single isomer, unassigned; (+)) [listing 2 of 2 here] the inhibition [4] was 24% and the inhibition [5] was 39%.
NC(=O)C[S+]([O-])Cc1ccccc1Oc1ccc(Cl)c(Cl)c1 (single isomer, unassigned; (-)) [listing 1 of 2 here] showed a Time (Rattus norvegicus; 100 mg/kg) of 168 min, an IC50 [1] of 0.2 µM and an IC50 [2] of 1.1 µM. The IC50 (Transporter) was 1.3 µM, the IC50 [3] was 31 µM and the IC50 (Cytochrome P450 2C19) was 30 µM. It also gave an IC50 (Cytochrome P450 3A4) of 40 µM, an IC50 (Cytochrome P450 3A5) of 40 µM and an IC50 (Cytochrome P450 2D6) of 106 µM. The IC50 (Cytochrome P450 2C9) was 216 µM, the inhibition at 100 µM (CYP1A1) was 10% and the inhibition at 100 µM (CYP1A2) was 10%.
Compound NC(=O)C[S+]([O-])Cc1ccccc1Oc1ccc(Cl)c(Cl)c1 (single isomer, unassigned; (-)) [listing 2 of 2 here] has an inhibition [4] of 30% and an inhibition [5] of 48%.
NC(=O)C[S+]([O-])C(c1ccccc1)c1ccccc1 (stereo unspecified) [MODAFINIL] showed a Time (Rattus norvegicus) of 117 min, an inhibition at 10 µM (CYP3A4) of under 10% and an inhibition at 10 µM (CYP3A5) of under 10%. For the same compound, the inhibition at 10 µM (CYP2D6) was under 10%.
